Each structure is given as a SMILES string. pEC50: −log10 of the molar value. Where two headings read alike, the source gives them in different places. Starred links: 1 amine or outer side, 2 acyl side, 3 side chain; linkers in the order of their positions; H or OH if unused. Non-standard residues stand in square brackets, D forms with d. Residues, ends and D or L forms follow the SMILES beside them. Groups on a side chain read outwards from the residue. *: point of attachment. C18 diacid = O=C(O)CCCCCCCCCCCCCCCCC(=O)*; γGlu = O=C(O)[C@H](CCC(=O)[*:2])N[*:1]; εLys = N[C@@H](CCCCN[*:1])C(=O)[*:2]; AEEA = NCCOCCOCC(=O)O; Aib = CC(C)(N)C(=O)O

The target of one experiment is T1, human GIP receptor (Homo sapiens, UniProt P48546).
T1 construct: expressed in transfected cells; host or cells: BHK (parent line BHKTS13), clone BHK CRE luc2P hGIPR
T1 sequence (P48546 22-466): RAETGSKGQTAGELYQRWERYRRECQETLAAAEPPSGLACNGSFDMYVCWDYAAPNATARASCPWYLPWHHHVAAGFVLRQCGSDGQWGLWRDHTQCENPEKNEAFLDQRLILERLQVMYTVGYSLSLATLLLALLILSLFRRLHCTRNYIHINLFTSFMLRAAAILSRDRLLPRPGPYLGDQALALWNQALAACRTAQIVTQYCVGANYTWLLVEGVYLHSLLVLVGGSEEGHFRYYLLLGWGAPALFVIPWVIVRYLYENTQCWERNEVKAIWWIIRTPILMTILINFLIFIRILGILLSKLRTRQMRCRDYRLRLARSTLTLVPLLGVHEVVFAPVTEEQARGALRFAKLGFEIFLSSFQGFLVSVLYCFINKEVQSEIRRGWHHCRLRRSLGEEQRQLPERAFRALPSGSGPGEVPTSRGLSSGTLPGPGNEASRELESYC
The experiment in a line: In vitro functional potency, CRE luciferase reporter gene assay, whole BHK cells expressing hGIPR. Type of experiment: cell-based. The following applies: BHK CRE luc2P hGIPR cells. The procedure: (§1) The in vitro functional potency is the measure of target receptor activation in a whole cell assay.
(§2) In vitro functional potency was determined by measuring the response of the target receptor in a reporter gene assay in individual cell lines. […] When the respective receptor is activated, it results in the production of cAMP, which in turn results in expression of the luciferase protein. When assay incubation is completed, luciferase substrate (luciferin) is added resulting in the enzymatic conversion of luciferin to oxyluciferin and producing bioluminescence. The luminescence is measured as the readout for the assay.
(§3) The cells lines used in these assays were BHK cells with BHKTS13 as a parent cell line. The cell lines were derived from a clone containing the CRE luciferase element and were established by further transfection with the respective human receptor to obtain the relevant cell line: BHK CRE luc2P hGLP-1R or BHK CRE luc2P hGIPR. The cells were cultured at 37° C. with 5% CO2 in Cell Culture Medium. They were aliquoted and stored in liquid nitrogen. The cells were kept in continuous culture and were seeded out the day before each assay.
(§4) GLP-1R Cell Culture Medium consisted of DMEM medium with 10% FBS, 500 μg/mL G418, and 300 μg/mL hygromycin. GIPR Cell Culture Medium consisted of DMEM medium with 10% FBS, 400 μg/mL G418, and 300 μg/mL hygromycin. Assay Buffer consisted of DMEM w/o phenol red, 10 mM Hepes, 1× Glutamax. 1% ovalbumin, and 0.1% Pluronic F-68 with the addition of HSA at twice the final assay concentration.
(§5) Procedure • 1) Cells were plated at 5000 cells/well and incubated overnight in the assay plate. • 2) Cells were washed once in DPBS. • 3) Stocks of the test compounds and reference compounds in concentrations ranging from […] were diluted 1:150 in Assay Buffer. Compounds were then diluted 1:10 in column 1 of a 96 deep well dilution plate and then carried across the row creating a 3.5 fold, 12 point dilution curve. • 4) Assay Buffer (50 μl aliquot) with or without HSA was added to each well in the assay plate. • 5) A 50 μl aliquot of compound or blank was transferred from the dilution plate to the assay plate containing the Assay Buffer with or without HSA. • 6) The assay plate was incubated for 3 h in a 5% CO2 incubator at 37° C. • 7) The cells were washed once with DPBS. • 8) A 100 μl aliquot of DPBS was added to each well of the assay plate. • 9) A 100 μl aliquot of steadylite plus reagent (light sensitive) was added to each well of the assay plate. • 10) Each assay plate was covered with aluminum foil to protect it from light and shaken at 250 RPM for 30 min at room temperature. • 11) Each assay plate was read in a microtiter plate reader.
(§6) The data from the microtiter plate reader was first regressed in an Excel in order to calculate the x-axis, log scale concentrations based on the individual test compound's stock concentration and the dilutions of the assay. […] The software performs a non-linear regression (log(agonist) vs response). A minimum of two replicates was measured for each sample. The reported values are averages of the replicates.
Background: In a reporter assay the amount or activity of a reporter protein is the signal.

The next experiment has as its target T2, human GLP-1 receptor (Homo sapiens, UniProt P43220).
T2 construct: expressed in transfected cells; host or cells: BHK (parent line BHKTS13), clone BHK CRE luc2P hGLP-1R
Put plainly: In vitro functional potency, CRE luciferase reporter gene assay, whole BHK cells expressing hGLP-1R. Type of experiment: cell-based. The settings on record: BHK CRE luc2P hGLP-1R cells. The procedure: as §1, §2, §3, §4, §5, §6

The mark [1] stands for this setting: 0% HSA, read-out: hGIPR, CRE Luc 0% HSA EC50.
[2] abbreviates: hGIPR, CRE Luc 1% HSA EC50, 1% HSA.
Setting [3] is: 0% HSA, read-out: hGLP-1R, CRE Luc 0% HSA EC50.
Where [4] appears, read: hGLP-1R, CRE Luc 1% HSA EC50, 1% HSA.

T2 sequence (P43220 24-463): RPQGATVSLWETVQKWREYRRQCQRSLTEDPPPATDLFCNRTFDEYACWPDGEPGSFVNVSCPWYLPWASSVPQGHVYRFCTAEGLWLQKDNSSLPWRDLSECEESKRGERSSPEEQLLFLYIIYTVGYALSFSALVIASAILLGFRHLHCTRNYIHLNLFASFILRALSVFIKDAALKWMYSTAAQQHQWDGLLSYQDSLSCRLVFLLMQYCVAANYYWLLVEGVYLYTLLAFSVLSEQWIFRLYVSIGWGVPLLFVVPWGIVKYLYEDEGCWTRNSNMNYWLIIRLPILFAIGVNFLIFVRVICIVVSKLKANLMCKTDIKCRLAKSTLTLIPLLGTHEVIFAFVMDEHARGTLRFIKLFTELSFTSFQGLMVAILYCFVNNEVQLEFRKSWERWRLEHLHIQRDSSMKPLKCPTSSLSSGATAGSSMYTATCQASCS

As a reminder, the pEC50 is the EC50 on a negative log10 scale, so that one unit is a factor of ten. On to `CC(C)C[C@H](NC(=O)[C@H](CC(C)C)NC(=O)[C@H](Cc1c[nH]c2ccccc12)NC(=O)[C@H](CC(N)=O)NC(=O)[C@@H](NC(=O)[C@H](Cc1ccccc1)NC(=O)[C@H](C)NC(=O)[C@H](CCC(N)=O)NC(=O)[C@H](C)NC(=O)[C@H](C)NC(=O)[C@H](CCC(N)=O)NC(=O)[C@H](CCCCNC(=O)[C@@H](N)CCCCNC(=O)[C@@H](N)CCCCNC(=O)CC[C@H](NC(=O)CCCCCCCCCCCCCCCCC(=O)O)C(=O)O)NC(=O)[C@H](CCC(=O)O)NC(=O)[C@H](CC(C)C)NC(=O)[C@H](Cc1ccc(O)cc1)NC(=O)[C@H](Cc1ccc(O)cc1)NC(=O)[C@H](CO)NC(=O)[C@H](Cc1ccc(O)cc1)NC(=O)[C@H](CC(=O)O)NC(=O)[C@H](CO)NC(=O)[C@@H](NC(=O)[C@H](Cc1ccccc1)NC(=O)[C@@H](NC(=O)CNC(=O)[C@H](CCC(=O)O)NC(=O)C(C)(C)NC(=O)[C@@H](N)Cc1ccc(O)cc1)[C@@H](C)O)[C@@H](C)O)C(C)C)C(=O)N[C@@H](C)C(=O)NCC(=O)NCC(=O)N1CCC[C@H]1C(=O)N[C@@H](CO)C(=O)N[C@@H](CO)C(=O)NCC(=O)N[C@@H](C)C(=O)N1CCC[C@H]1C(=O)N1CCC[C@H]1C(=O)N1CCC[C@H]1C(=O)N[C@@H](CO)C(=O)O` [Compound No. 5] (H-Y[Aib]EGTFTSDYSYYLEK([εLys-εLys-γGlu-C18 diacid])QAAQAFVNWLLAGGPSSGAPPPS-OH; N-terminus assumed), for which the negative logarithm of the EC50 (pEC50) was 10.85 on human GIP receptor (setting [1]), 9.44 on human GIP receptor (setting [2]), 11.03 on human GLP-1 receptor (setting [3]) and 9.20 at human GLP-1 receptor (setting [4]).

`CC[C@H](C)[C@H](NC(=O)[C@H](CO)NC(=O)[C@H](Cc1ccc(O)cc1)NC(=O)[C@H](CC(=O)O)NC(=O)[C@H](CO)NC(=O)[C@@H](NC(=O)[C@H](Cc1ccccc1)NC(=O)[C@@H](NC(=O)CNC(=O)[C@H](CCC(=O)O)NC(=O)C(C)(C)NC(=O)[C@@H](N)Cc1ccc(O)cc1)[C@@H](C)O)[C@@H](C)O)C(=O)N[C@@H](Cc1ccc(O)cc1)C(=O)N[C@@H](CC(C)C)C(=O)N[C@@H](CCC(=O)O)C(=O)N[C@@H](CCCCNC(=O)[C@@H](N)CCCCNC(=O)[C@@H](N)CCCCNC(=O)CC[C@H](NC(=O)CCCCCCCCCCCCCCCCC(=O)O)C(=O)O)C(=O)N[C@@H](CCC(N)=O)C(=O)N[C@@H](C)C(=O)N[C@@H](C)C(=O)N[C@@H](CCCNC(=N)N)C(=O)N[C@@H](CCC(=O)O)C(=O)N[C@@H](Cc1ccccc1)C(=O)N[C@H](C(=O)N[C@@H](CC(N)=O)C(=O)N[C@@H](Cc1c[nH]c2ccccc12)C(=O)N[C@@H](CC(C)C)C(=O)N[C@@H](CC(C)C)C(=O)N[C@@H](C)C(=O)NCC(=O)NCC(=O)N1CCC[C@H]1C(=O)N[C@@H](CO)C(=O)N[C@@H](CO)C(=O)NCC(=O)N[C@@H](C)C(=O)N1CCC[C@H]1C(=O)N1CCC[C@H]1C(=O)N1CCC[C@H]1C(=O)N[C@@H](CO)C(N)=O)C(C)C` [Compound No. 6] (H-Y[Aib]EGTFTSDYSIYLEK([εLys-εLys-γGlu-C18 diacid])QAAREFVNWLLAGGPSSGAPPPS-NH2): the pEC50 at human GIP receptor (setting [1]) was 10.73; on human GIP receptor (setting [2]), 9.36; at human GLP-1 receptor (setting [3]), 11.47; at human GLP-1 receptor (setting [4]) it was 9.61.

Turning to `CC[C@H](C)[C@H](NC(=O)[C@H](CO)NC(=O)[C@H](Cc1ccc(O)cc1)NC(=O)[C@H](CC(=O)O)NC(=O)[C@H](CO)NC(=O)[C@@H](NC(=O)[C@H](Cc1ccccc1)NC(=O)[C@@H](NC(=O)CNC(=O)[C@H](CCC(=O)O)NC(=O)C(C)(C)NC(=O)[C@@H](N)Cc1ccc(O)cc1)[C@@H](C)O)[C@@H](C)O)C(=O)N[C@@H](Cc1ccc(O)cc1)C(=O)N[C@@H](CC(C)C)C(=O)N[C@@H](CCC(=O)O)C(=O)N[C@@H](CCCCNC(=O)COCCOCCNC(=O)COCCOCCNC(=O)CC[C@H](NC(=O)CCCCCCCCCCCCCCCCC(=O)O)C(=O)O)C(=O)N[C@@H](CCC(N)=O)C(=O)N[C@@H](C)C(=O)N[C@@H](C)C(=O)N[C@@H](CCCNC(=N)N)C(=O)N[C@@H](CCC(=O)O)C(=O)N[C@@H](Cc1ccccc1)C(=O)N[C@H](C(=O)N[C@@H](CC(N)=O)C(=O)N[C@@H](Cc1c[nH]c2ccccc12)C(=O)N[C@@H](CC(C)C)C(=O)N[C@@H](CC(C)C)C(=O)N[C@@H](C)C(=O)NCC(=O)NCC(=O)N1CCC[C@H]1C(=O)N[C@@H](CO)C(=O)N[C@@H](CO)C(=O)NCC(=O)N[C@@H](C)C(=O)N1CCC[C@H]1C(=O)N1CCC[C@H]1C(=O)N1CCC[C@H]1C(=O)N[C@@H](CO)C(N)=O)C(C)C` [Compound No. 7] (H-Y[Aib]EGTFTSDYSIYLEK([AEEA-AEEA-γGlu-C18 diacid])QAAREFVNWLLAGGPSSGAPPPS-NH2), the pEC50 at human GIP receptor (setting [1]) is 10.54; at human GIP receptor (setting [2]) it was 9.16; at human GLP-1 receptor (setting [3]), 11.38; on human GLP-1 receptor (setting [4]), 9.29.

With `CC[C@H](C)[C@H](NC(=O)[C@H](Cc1ccccc1)NC(=O)[C@H](CCC(=O)O)NC(=O)[C@H](CCCNC(=N)N)NC(=O)[C@H](C)NC(=O)[C@H](C)NC(=O)[C@H](CCC(N)=O)NC(=O)[C@H](CCCCNC(=O)[C@@H](N)CCCCNC(=O)[C@@H](N)CCCCNC(=O)CC[C@H](NC(=O)CCCCCCCCCCCCCCCCC(=O)O)C(=O)O)NC(=O)[C@H](CCC(=O)O)NC(=O)[C@H](CC(C)C)NC(=O)[C@H](Cc1ccc(O)cc1)NC(=O)[C@@H](NC(=O)[C@H](CO)NC(=O)[C@H](Cc1ccc(O)cc1)NC(=O)[C@H](CC(=O)O)NC(=O)[C@H](CO)NC(=O)[C@@H](NC(=O)[C@H](Cc1ccccc1)NC(=O)[C@@H](NC(=O)CNC(=O)[C@H](CCC(=O)O)NC(=O)C(C)(C)NC(=O)[C@@H](N)Cc1ccc(O)cc1)[C@@H](C)O)[C@@H](C)O)[C@@H](C)CC)C(=O)N[C@@H](CC(N)=O)C(=O)N[C@@H](Cc1c[nH]c2ccccc12)C(=O)N[C@@H](CC(C)C)C(=O)N[C@@H](CC(C)C)C(=O)N[C@@H](C)C(=O)NCC(=O)NCC(=O)N1CCC[C@H]1C(=O)N[C@@H](CO)C(=O)N[C@@H](CO)C(=O)NCC(=O)N[C@@H](C)C(=O)N1CCC[C@H]1C(=O)N1CCC[C@H]1C(=O)N1CCC[C@H]1C(=O)N[C@@H](CO)C(N)=O` [Compound No. 8] (H-Y[Aib]EGTFTSDYSIYLEK([εLys-εLys-γGlu-C18 diacid])QAAREFINWLLAGGPSSGAPPPS-NH2), the pEC50 on human GIP receptor (setting [1]) is 11.17; on human GIP receptor (setting [2]) it was 9.72; at human GLP-1 receptor (setting [3]), 11.64; on human GLP-1 receptor (setting [4]), 10.09.

(Values after patent US20230120597A1, “CO-AGONISTS AT GLP-1 AND GIP RECEPTORS SUITABLE FOR ORAL DELIVERY” (Novo Nordisk A/S, priority 2020, published 2023).)
